Laboratory results published in patent US11213512B2, “Bis-amino acid based compound and use thereof” (THE CURATORS OF THE UNIVERSITY OF MISSOURI, priority 2016, dated 2022).

Experiments:
HEK-293 cells [1] = assay: Cytotoxicity to mammalian cells, XTT assay; type: cell-based, human; conditions: 24 h; for cytotoxicity to HEK-293 (in words): at MIC against Tet^R E. coli (2: 48, 7: 128, 10: 10 μM); for survival of HEK-293 (in words): two-fold increase over MIC concentration
Description: (§1) It was initially hypothesized that antimicrobial activity resulted from membrane disruption. Membrane active compounds are often cytotoxic to mammalian cells (Shai, Biopolymers 2002, 66, 236-48; Shai, et al., Curr. Protein Pept. Sci. 2006, 7, 479-86). The survival of three mammalian epithelial cell lines was assayed for 2, 3, 5, and 10. […] The cell lines studied were human embryonic kidney (HEK-293), human cervix epithelial (HeLa, ATCC Accession No. CCL-2), and Cercopithecus aethiops kidney (Cos-7, ATCC Accession No. CRL 1651). HeLa cells were acquired from ATCC. Cos-7 and HEK-293 cells were donated by colleagues. Cell lines were regularly maintained in growth media containing DMEM (ATCC), 10% fetal bovine serum (FBS, ATCC) and 1% penicillin-streptomycin solution (ATCC). Adherent HEK-293, HeLa and Cos-7 cells were trypsinized using 0.25% (w/v) trypsin-EDTA (Sigma-Aldrich), suspended in a fresh media and diluted to get a concentration of 3×10^5 cells/ml. Cells were seeded in a 96-well plate (100 μL/well) to get 3×10^4 cells/well. The plates were incubated for 24 hours at 5% CO2 and 37° C. to reach a confluency of 80-90%.
(§2) In a sterile 1.5 mL micro-centrifuge tube, compounds 2, 3, 5, 6, 7 and 10 (0.5% DMSO) were mixed with assay media (DMEM+10% FBS) and serially diluted by 2-fold each to get 2[MIC], [MIC], ½[MIC] and ¼ [MIC] concentrations. A control containing 0.5% DMSO was also prepared. After 24 hours, the spent media in the 96-well plate containing HEK-293, HeLa and Cos-7 cells (90% confluency) was replaced with 100 μL media containing the compounds 2, 3, 5, 6, 7 and 10 at various concentrations. The cells were incubated at 37° C. and 5% CO2 for 24 hours before performing XTT assay (Sigma-Aldrich). The XTT assay was performed according to the manufacturer's protocol. After 24 hours of treatment with compounds, the media was replaced with PBS and 25 μL XTT was added to each well. The XTT assay works by the reduction of tetrazolium compound by alive cells to the colored soluble formazan product. The absorbance of the product was measured at 450 nm (XTT) and 690 nm (background). Percent survival was calculated by comparing the average absorbance of cells treated with compounds 2, 3, 5, 6, 7, and 10 to that of cells alone. Two replicates for each treatment were determined. Average percent survival and standard deviation were calculated.
(§3) Cells were cultured for 24 h in 96-well plates and treated with media containing concentrations using [MIC] and [MIC]×2 determined previously for Tet^R E. coli. The number of surviving cells was determined using an XTT assay (Sigma-Aldrich); the results are represented as percent survival in FIG. 2. Cells alone were used as controls and established 100% survival. The data represent two replicates of three trials and the error bars represent the standard deviation.

HeLa cells = assay: Cytotoxicity to mammalian cells, XTT assay; type: cell-based, human; conditions: 24 h; for cytotoxicity to HeLa (in words): at MIC against Tet^R E. coli (2: 48, 7: 128, 10: 10 μM); for survival of HeLa (in words): two-fold increase over MIC concentration
Description: as §1, §2, §3

Tet^R E. coli = assay: Membrane permeability and viability, confocal microscopy (propidium iodide / fluorescein diacetate); type: cell-based, Escherichia coli; conditions: 2 at 24 μM, 10 at 6 μM (~½ MIC), 30 min
Description: To test the membrane permeability of the Tet^R E. coli, the bacteria was first grown overnight from one CFU in media containing 100 μg/mL Ampicillin at 37° C. and 200 RPM. Tet^R E. coli was then knocked back to O.D. 600 nm=0.550 before use. In a sterile test tube, cells were added followed by either compounds 2 or 10 at half-MIC concentrations and incubated at 37° C. and 200 RPM. The concentration of DMSO was kept constant at 0.5% —by volume in each case. After 30 minutes of incubation, the cells were washed by centrifugation at 3000×g for 5 minutes and re-suspended in sterile phosphate buffered saline (PBS). Propidium iodide (30 μM, Thermo-Fischer) and fluorescein diacetate (60 μM, Sigma-Aldrich) were added to the Tet^R E. coli cells in the PBS, mixed by vortexing and incubated at 37° C. and 200 RPM. After 30 minutes, the cells were washed again by centrifugation at 3000×g for 5 minutes. The pellet was suspended in a fresh PBS, loaded onto a clean glass slide, covered with a cover slip and observed under Zeiss LSM 700 confocal microscope.
The study was designed to assess the membrane permeability and viability of the E. coli in the presence of BTs 2 and 10. The three panels in FIG. 6 show the bright field (BF) microscopic images (top row), the result when fluorescein diacetate (FDA) is present (middle row), and the presence of propidium iodide (PI, bottom row), if any. […] When it does, it intercalates in DNA, which leads to enhanced fluorescence. Fluorescein diacetate is incorporated into the cells during growth, but is not fluorescent. If the organism is or remains vital, the diester will be hydrolyzed and fluorescein will be observed by its fluorescence emission.
Controls for the permeability/viability assay were included for E. coli in the presence of a final concentration of 0.5% (v/v) DMSO (the vehicle for administration of BTs), and a final concentration of 0.1% […] Triton X-100. […] Thus, less than or equal to 0.5% DMSO (v/v) was always used; the control is shown in the second column. Triton X-100 is a potent detergent, which was used at 0.1% or ˜1,670 μM.

HEK-293 cells [2] = assay: Mammalian cell permeability and vitality, confocal microscopy (propidium iodide / fluorescein diacetate); type: cell-based, human; conditions: 2 hours
Description: To test the permeability of HEK-293 cells, the cells were cultured in growth medium as described above. HEK-293 (90% confluent) were then seeded in a 96-well plate to get 30,000 cells/well. After 24 hours of incubation at 37° C. and 5% CO2, the spent media was replaced with media (DMEM and 10% FBS) containing compound 2 at either 20 μM or 80 μM. […] Triton X-100 at 0.1%—by volume (1670 μM) and DMSO 0.5% (v/v) were also used as controls. After 2 hours of incubation, spent media was replaced with PBS containing propidium iodide (30 μM) and fluorescein diacetate (60 μM) and incubated at 37° C. and 5% CO2. After 2 hour of incubation, the spend media was replaced with fresh PBS and the cells were observed under Zeiss LSM 700 confocal microscope. The images were reported without any alterations. The gain and the intensity in all the images were kept constant.
A compound that inhibits bacterial growth and penetrates into the microbe's cytosol may also penetrate into mammalian cells. A similar microscopic study was conducted with the human embryonic kidney (HEK-293) cell line. In this case, only compound 2 was studied. […] The microscopic study was therefore conducted at 20 μM, a value well below any inhibitory concentration, and at 80 μM, a concentration above all three MIC values. The 80 μM concentration was used to confirm the […] of 2 and to establish the lack of serum inhibition.

[3] = at MIC against Tet^R E. coli (2: 48, 3: 28, 5: 56, 6: 120, 7: 128, 10: 10 μM)
[4] = at twice the MIC (FIG. 3 legend: 2: 96, 3: 56, 5: 112, 6: 240, 7: 256, 10: 20 μM)

Compound: Cl.Cl.N[C@H](Cc1c[nH]c2ccccc12)C(=O)Nc1cccc(NC(=O)[C@H](N)Cc2c[nH]c3ccccc23)c1 [Compound 3, (2R,2′R)-1,1′-(1,3-Phenylenebis(azanediyl))bis(3-(1H-indol-3-yl)-1-oxopropan-2-aminium) chloride]
- percent survival HEK-293 (HEK-293 cells [1]; [3]): 100%
- percent survival HEK-293 (HEK-293 cells [1]; [4]): 62%
- percent survival HeLa (HeLa cells; [3]): 100%
- percent survival HeLa (HeLa cells; [4]): 29%

Compound: Cl.Cl.N[C@@H](Cc1c[nH]c2ccccc12)C(=O)Nc1cccc(NC(=O)[C@@H](N)Cc2c[nH]c3ccccc23)c1 [Compound 2, (2S,2′S)-1,1′-(1,3-Phenylenebis(azanediyl))bis(3-(1H-indol-3-yl)-1-oxopropan-2-aminium) chloride]
- viability (fluorescein diacetate fluorescence) (Tet^R E. coli): vital
- cellular vitality (FDA fluorescence) (HEK-293 cells [2]; 20 μM): no loss of vitality
- cellular vitality (FDA fluorescence) (HEK-293 cells [2]; 80 μM): some toxic effect was apparent
- percent survival HEK-293 (HEK-293 cells [1]; [3]): 100%
- cytotoxicity to HEK-293 (in words) (HEK-293 cells [1]): no cytotoxicity
- survival of HEK-293 (in words) (HEK-293 cells [1]): unaffected
- percent survival HeLa (HeLa cells; [3]): 100%
- cytotoxicity to HeLa (in words) (HeLa cells): no cytotoxicity
- survival of HeLa (in words) (HeLa cells): unaffected

Compound: Cl.Cl.N[C@H](Cc1c[nH]c2ccccc12)C(=O)NCCCCCCCCCCCCNC(=O)[C@@H](N)Cc1c[nH]c2ccccc12 [Compound 10, (S)-1-((12-((R)-2-Ammonio-3-(1H-indol-3-yl)propanamido)dodecyl)amino)-3-(1H-indol-3-yl)-1-oxopropan-2-aminium chloride]
- viability (fluorescein diacetate fluorescence) (Tet^R E. coli): vital
- cytotoxicity to HEK-293 (in words) (HEK-293 cells [1]): minimally toxic
- cytotoxicity to HeLa (in words) (HeLa cells): moderately toxic

Compound: Cl.Cl.N[C@@H](Cc1c[nH]c2ccccc12)C(=O)NCCCNC(=O)[C@@H](N)Cc1c[nH]c2ccccc12 [Compound 7, (2S,2′S)-1,1′-(Propane-1,3-diylbis(azanediyl))bis(3-(1H-indol-3-yl)-1-oxopropan-2-aminium) chloride]
- cytotoxicity to HEK-293 (in words) (HEK-293 cells [1]): minimally toxic
- cytotoxicity to HeLa (in words) (HeLa cells): moderately toxic

Compound: Cl.Cl.N[C@@H](Cc1c[nH]c2ccccc12)C(=O)Nc1ccc(NC(=O)[C@@H](N)Cc2c[nH]c3ccccc23)cc1 [Compound 6, (2S,2′S)-1,1′-(1,4-Phenylenebis(azanediyl))bis(3-(1H-indol-3-yl)-1-oxopropan-2-aminium) chloride]
- percent survival HEK-293 (HEK-293 cells [1]; [3]): 100%
- percent survival HEK-293 (HEK-293 cells [1]; [4]): 61%
- percent survival HeLa (HeLa cells; [3]): 100%
- percent survival HeLa (HeLa cells; [4]): 29%

Compound: Cl.Cl.N[C@@H](Cc1c[nH]c2ccccc12)C(=O)Nc1ccccc1NC(=O)[C@@H](N)Cc1c[nH]c2ccccc12 [Compound 5, (2S,2′S)-1,1′-(1,2-Phenylenebis(azanediyl))bis(3-(1H-indol-3-yl)-1-oxopropan-2-aminium) chloride]
- percent survival HEK-293 (HEK-293 cells [1]; [3]): 100%
- survival of HEK-293 (in words) (HEK-293 cells [1]): unaffected
- percent survival HeLa (HeLa cells; [3]): 100%
- survival of HeLa (in words) (HeLa cells): unaffected
